Measurements from US20060167106A1, “Compounds acting at the centrosome” (priority 2004, published 2006).
“Also recorded” adds a separate entry of the source.

What was measured:
[1] = tested on: CHO cells; assay: Cell morphology, simultaneous time-lapse imaging of CHO cells; type: cell-based, Chinese hamster; settings: for cell death: cells, after a certain period of treatment
Method: CV-1 cells and CHO cells were previously cultured in 2-well chambered cover-slips for 48 hours and incubated in 15 mM HEPES buffer-containing Ham's F-12/DMEM medium with different compounds. The cells were imaged using phase contrast settings with the Nikon TE300 microscope/digital imaging system. The cells were imaged ‘simultaneously’ under control of MetaVue software by capturing frames for cells from different conditions at the same time period using a motorized automated XYZ stage.
To track the effect of Compound 1 on live cells, non-transfected CV-1 cells with were treated with 500 nM Compound 1 and phase contrast time-lapse images were taken every 10 seconds. […] A very low concentration of Taxol (10 nM) was used.

[2] = cited from earlier work
[3] = tested on: cell line expressing α-tubulin-YFP; assay: α-tubulin-YFP expressing cell line, flow cytometry of strong fluorescent cells; type: cell-based
[4] = tested on: 26S proteasome; assay: Proteasome-sensor cells (HEK-293, GFP chimera), fluorescence imaging; type: cell-based; settings: for accumulation of the GFP-based proteasome substrate at the center of the colonies: Compound 1 500 nM 20-40 hours, Velcade 50 or 500 nM 20 hours; for accumulation of GFP-labeled proteasome-targeting chimera protein, periphery of colony relative to center: HEK-293 colony, 500 nM; for proteasome inhibition activity in cell-based assays (overall statement): live proteasome-sensor cells
Text: Specifically, the proteasome-sensor cells are HEK-293 cells stably transfected with a vector (proteasome-sensor vector) that encodes naturally-occurring reef coral Zoanthus sp. green fluorescent protein (GFP) fused to a specific degradation motif that targets the fusion protein for removal by the 26S proteasome. The background fluorescence observed in normal cells with active proteasomes is low. When proteasomes are inhibited, the fluorescent protein quickly accumulates. […] Millennium Pharmaceuticals, Inc., Cambridge, Mass.). […] Velcade (Millennium Pharmaceuticals Inc.) was used as a positive control in this assay (at 5 nM, 50 nM, 500 nM or 5 μM). Velcade stock solution was prepared according to the manufacturer's instructions. GFP fluorescence of the cells was imaged at various time points using a standard filter for FITC with the Nikon TE300 microscope/digital imaging system described herein.

[5] = biological target: T1, bovine red blood cell 20S proteasome (Bos taurus, UniProt Q32KL2); assay: 20S Proteasome Assay (in vitro, Suc-Leu-Val-Tyr-AMC); type: biochemical; settings: isolated 20S proteasome; for proteasome activity in vitro: 5 nM
T1 construct: bovine red blood cell 20S proteasome; purchased Calbiochem; host or cells: purified from bovine red blood cells
Method: 190 μl of reaction buffer (500 mM HEPES, 10 nM EDTA, pH 7.6), containing 0.03% SDS was pre-incubated for 5 minutes at 37° C. in the presence of 0.2 μg of bovine red blood cell 20S proteasome (Calbiochem, San Diego, Calif.) for temperature equilibration. Subsequently, inhibitors or Compound 1 were added to the reaction mixture at a final DMSO concentration of 0.5%. The reaction was initiated by adding 10 μl of the peptide-AMC substrate (Calbiochem, San Diego, Calif.) to each well. The emitted fluorescence was then measured every third minute at 37° C. for 90 minutes by a fluorescence plate reader (FlexStation II, Molecular Devices, Sunnyvale, Calif.) at 460 nm (λex360 nm) wavelength.
The buffers and reagents for the assay were purchased from Calbiochem (20S Proteasome Assay Kit; Calbiochem, San Diego, Calif.). The principle of the assay is that the release of free AMC (7-Amino-4-methylcoumarin) following degradation of the substrate results in a fluorescent signal that is a measure of proteasome activity. The quantitative analysis of 20S proteasome activity was assayed as described.

Row | proteasome activity in vitro [5] | SMILES | cell death [1] | toxicity in vivo [2] | accumulation of the GFP-based proteasome substrate at the center of the colonies ([4]; FIG. 14) | accumulation of proteasome-sensor protein in cells ([4]; HEK-293, 1 nM, 20 hours) | accumulation of proteasome-sensor protein in cells ([4]; HEK-293, 5 nM, 20 hours) | accumulation of proteasome-sensor protein in cells ([4]; HEK-293, 10 nM, 20 hours) | accumulation of proteasome-sensor protein in cells ([4]; HEK-293, 50 nM, 20 hours) | accumulation of proteasome-sensor protein in cells ([4]; HEK-293, 100 nM, 20 hours) | accumulation of proteasome-sensor protein in cells ([4]; HEK-293, 500 nM, 20 hours) | other results
1 | almost complete inhibition | CC(C)C[C@H](NC(=O)[C@H](Cc1ccccc1)NC(=O)c1cnccn1)B(O)O [Velcade] | cause cell death after a certain period of treatment | greater toxicity | greater accumulation of the GFP-based proteasome substrate in cells at the colony center than did Compound 1 | accumulation of proteasome-sensor protein in cells | significantly induced an increase of GFP signal; also recorded: accumulation of proteasome-sensor protein in cells | accumulation of proteasome-sensor protein in cells | accumulation of proteasome-sensor protein in cells | accumulation of proteasome-sensor protein in cells | accumulation of proteasome-sensor protein in cells | effect on cell morphology ([1]; CHO cells, 100 nM): did not dramatically affect cell morphology until cell death; time of cell death ([1]; CHO cells, 100 nM): 210 min; increase of the strong-fluorescent positive cells compared to DMSO ([3]; 50 nM): 27.74%; accumulation of proteasome-sensor protein in cells ([4]; HEK-293, 100 nM, 24 hours): accumulation of proteasome-sensor protein in cells; proteasome inhibition in vitro ([5]; 0.5 μM): almost completely inhibited the proteasome
2 | no effect on proteasome activity | CN(NC(=O)CC(=O)NN(C)C(=S)c1ccccc1)C(=S)c1ccccc1 [Compound 1] | cause cell death after a certain period of treatment | very low toxicity in vivo | did not cause significant accumulation | accumulation of proteasome-sensor protein in cells | accumulation of proteasome-sensor protein in cells | accumulation of proteasome-sensor protein in cells | induced an increase of the GFP-based proteasome substrate in the cytoplasm in some scattered cells; also recorded: accumulation of proteasome-sensor protein in cells | significantly increased the GFP signal in the cytosol; also recorded: accumulation of proteasome-sensor protein in cells | accumulation of proteasome-sensor protein in cells | time of induced cell shrinkage ([1]; CHO cells, 500 nM): 70 min; increase of the strong-fluorescent positive cells compared to DMSO ([3]; 500 nM): 20.37%; accumulation of the GFP-based proteasome substrate at the periphery of the colonies ([4]; FIG. 14, Compound 1 500 nM, 20-40 hours): significant accumulation of the GFP-based proteasome substrate; accumulation of proteasome-sensor protein in cells ([4]; HEK-293, 0.5 μM, 24 hours): accumulation of proteasome-sensor protein in cells; accumulation of GFP-labeled proteasome-targeting chimera protein, periphery of colony relative to center ([4]; 20 hours): stronger accumulation at the periphery of the colony; accumulation of GFP-labeled proteasome-targeting chimera protein, periphery of colony relative to center ([4]; 40 hours): stronger accumulation at the periphery of the colony; distribution of GFP-labeled proteasome-targeting chimera protein ([4]; HEK-293 proteasome-sensor cell, 5 μM, 24 hours): general, broad distribution of GFP-labeled proteasome-targeting chimera protein in both the cytosol and nucleus; proteasome inhibition activity in cell-based assays (overall statement) [4]: weak-to-moderate proteasome inhibitory effect in live cells; also recorded: moderate proteasome inhibition activity; also recorded: weak/moderate proteasome inhibitor; proteasome inhibition activity in cell-based assays (overall statement) ([4]; listed as GMP-grade Compound 1): detectable level of proteasome inhibition activity; proteasome inhibitory activity in vitro (overall statement) [5]: very weak proteasome inhibitory activity in the in vitro assay; proteasome inhibitory activity in vitro ([5]; 50 μM): did not exhibit significant proteasome inhibitory activity; also recorded: neither Compound 1 nor its salt form, Compound 2, displayed significant proteasome inhibitory activity; proteasome inhibitory activity in vitro (overall statement) ([5]; listed as GMP-grade Compound 1): failed to inhibit isolated proteasomes
